Results published in ChEMBL document CHEMBL1141060, “A new synthesis of isoaurones: cytotoxic activity of compounds related to the alleged structure of isoaurostatin” (Bioorg Med Chem Lett, 2005).

Tested on: NCI-H460
Experiment: Cytotoxic activity against human non-small lung carcinoma cell line H460
Assay type: functional, cell-based

Row | Structure (SMILES) | IC50 [µM]
1 | COc1ccc(/C=C2/C(=O)Oc3ccccc32)cc1 | > 39
2 | COc1cc(OC)c2c(c1)OC(=O)/C2=C/c1ccc(OC)c(O)c1 | 8.8
3 | COc1cc(/C=C2/C(=O)Oc3ccccc32)cc(OC)c1OC | 37.7
4 | CC(=O)Oc1ccc(/C=C2/C(=O)Oc3ccc(OC(C)=O)cc32)cc1 | > 50
5 | O=C1Oc2ccccc2/C1=C\c1ccc(OC(=O)c2ccccc2)cc1 | > 30
6 | O=C1Oc2ccccc2/C1=C\c1ccc(O)cc1 | 10.1
7 | COc1ccc(/C=C2/C(=O)Oc3ccccc32)cc1O | 9.3
